{
  "source": "patent US20050197350A1",
  "about": "“Novel quinoline, tetrahydroquinazoline, and pyrimidine derivatives and methods of treatment related to the use thereof” (TAISHO PHARMACEUTICAL CO., LTD., priority 2003, published 2005)",
  "data": [
    {"test_system": "MCH receptors", "experiment": "MCH receptor activity class (method not given)", "conditions": "MCH receptor activity class 1-3 (percent of control at 10^-7 M or IC50)", "values": [
      {"molecule": "Cc1cc([N+](=O)[O-])ccc1NC(=S)N[C@H]1CC[C@@H](Nc2nccc(N(C)C)n2)CC1", "note": "[compound 2336]", "class": "3 (Class 3 The value of percent of control at 10^−7 M was more than 60% or the value of IC50 was more than 200 nM.)"}
    ]},
    {"test_system": "MCH receptors", "experiment": "MCH receptor activity class (method not given)", "conditions": "MCH receptor; class by percent of control at 10^-7 M or IC50", "values": [
      {"molecule": "CCCCc1ccc(NC(=O)N[C@H]2CC[C@@H](Nc3nc4c(c(N(C)C)n3)CCCC4)CC2)cc1", "note": "[compound 1897]", "class": "3 (Class 3 The value of percent of control at 10^−7 M was more than 60% or the value of IC50 was more than 200 nM.)"},
      {"molecule": "CN(C)c1cc(NC2CCC(CNC(=O)OCc3ccccc3)CC2)nc2ccccc12", "note": "(centres unmarked) [compound 182]", "class": "3 (Class 3 The value of percent of control at 10^−7 M was more than 60% or the value of IC50 was more than 200 nM.)"},
      {"molecule": "CN(C)c1nc(N[C@H]2CC[C@@H](NC(=S)NCCCN3CCOCC3)CC2)nc2c1CCCC2", "note": "[compound 2078]", "class": "3 (Class 3 The value of percent of control at 10^−7 M was more than 60% or the value of IC50 was more than 200 nM.)"},
      {"molecule": "CN(C)c1cc(N[C@H]2CC[C@@H](NC(=O)c3ccc(F)cc3Cl)CC2)nc2ccccc12", "note": "[compound 61]", "class": "3 (Class 3 The value of percent of control at 10^−7 M was more than 60% or the value of IC50 was more than 200 nM.)"},
      {"molecule": "Cc1onc(-c2c(Cl)cccc2Cl)c1C(=O)N[C@H]1CC[C@@H](Nc2cc(N(C)C)c3ccccc3n2)CC1", "note": "[compound 134]", "class": "1 (Class 1: The value of percent of control at 10^−7 M was less than 40% or the value of IC50 was less than 50 nM.)"},
      {"molecule": "CN(C)c1cc(N[C@H]2CC[C@@H](NC(=O)c3cc(C(C)(C)C)nn3Cc3ccccc3)CC2)nc2ccccc12", "note": "[compound 85]", "class": "3 (Class 3 The value of percent of control at 10^−7 M was more than 60% or the value of IC50 was more than 200 nM.)"}
    ]},
    {"test_system": "MCH receptors", "experiment": "MCH receptor activity class (method not given)", "conditions": "activity class 1-3: percent of control at 10^-7 M or IC50", "values": [
      {"molecule": "Cc1ccc(OC(=O)N[C@H]2CC[C@@H](Nc3cc(N(C)C)c4ccccc4n3)CC2)cc1", "note": "[compound 1554]", "class": "3 (Class 3 The value of percent of control at 10^−7 M was more than 60% or the value of IC50 was more than 200 nM.)"},
      {"molecule": "CN(C)c1nc(N[C@H]2CC[C@@H](NC(=O)Nc3ccc(F)cc3)CC2)nc2c1CCCC2", "note": "[compound 1664]", "class": "2 (Class 2: The value of percent of control at 10^−7 M was from 40% to 60% or the value of IC′50 was from 50 nM to 200 nM.)"}
    ]},
    {"test_system": "MCH receptors", "experiment": "MCH receptor activity class (method not given)", "conditions": "activity class per percent of control at 10^-7 M or IC50", "values": [
      {"molecule": "CCCCC/C(=C\\c1ccccc1)CN[C@H]1CC[C@@H](Nc2cc(N(C)C)c3ccccc3n2)CC1", "note": "[compound 1111]", "class": "3 (Class 3 The value of percent of control at 10^−7 M was more than 60% or the value of IC50 was more than 200 nM.)"},
      {"molecule": "CN(C)c1nc(N[C@H]2CC[C@@H](NC(=O)/C=C/c3ccccc3[N+](=O)[O-])CC2)nc2c1CCCC2", "note": "[compound 1002]", "class": "3 (Class 3 The value of percent of control at 10^−7 M was more than 60% or the value of IC50 was more than 200 nM.)"},
      {"molecule": "Cc1cc(C(=O)NC[C@H]2CC[C@@H](Nc3nc4c(c(N(C)C)n3)CCCC4)CC2)cc(C)c1OCc1ccccc1", "note": "[compound 1082]", "class": "3 (Class 3 The value of percent of control at 10^−7 M was more than 60% or the value of IC50 was more than 200 nM.)"}
    ]},
    {"test_system": "MCH receptors", "experiment": "MCH receptor activity class (method not given)", "conditions": "class 1-3 by percent of control at 10^-7 M or IC50", "values": [
      {"molecule": "CN(C)c1ccnc(N[C@H]2CC[C@@H](CNC(=O)c3c(F)cccc3Cl)CC2)n1", "note": "[compound 450]", "class": "3 (Class 3 The value of percent of control at 10^−7 M was more than 60% or the value of IC50 was more than 200 nM.)"},
      {"molecule": "Cc1nn(-c2ccccc2)nc1C(=O)N[C@H]1CC[C@@H](Nc2nc3c(c(N(C)C)n2)CCCC3)CC1", "note": "[compound 543]", "class": "2 (Class 2: The value of percent of control at 10^−7 M was from 40% to 60% or the value of IC′50 was from 50 nM to 200 nM.)"}
    ]},
    {"test_system": "MCH receptors", "experiment": "MCH receptor activity class (method not given)", "conditions": "class by percent of control at 10^-7 M or IC50", "values": [
      {"molecule": "CN(C)c1ccnc(N[C@H]2CC[C@@H](NC(=O)c3cc(Cl)ccc3O)CC2)n1", "note": "[compound 919]", "class": "3 (Class 3 The value of percent of control at 10^−7 M was more than 60% or the value of IC50 was more than 200 nM.)"},
      {"molecule": "CN(C)c1ccnc(N[C@H]2CC[C@@H](CNC(=O)c3ccc(-c4ccc(Cl)cc4[N+](=O)[O-])o3)CC2)n1", "note": "[compound 928]", "class": "3 (Class 3 The value of percent of control at 10^−7 M was more than 60% or the value of IC50 was more than 200 nM.)"},
      {"molecule": "CN(C)c1ccnc(N[C@H]2CC[C@@H](NC(=O)c3cc([N+](=O)[O-])cn3C)CC2)n1", "note": "[compound 907, N-(cis-4-{[4-(dimethylamino)pyrimidin-2-yl]amino}cyclohexyl)-1-methyl-4-nitro-1H-pyrrole-2-carboxamide]", "class": "1 (Class 1: The value of percent of control at 10^−7 M was less than 40% or the value of IC50 was less than 50 nM.)"},
      {"molecule": "Cc1cccc(C(=O)N[C@H]2CC[C@@H](Nc3nccc(N(C)C)n3)CC2)c1N", "note": "[compound 922]", "class": "3 (Class 3 The value of percent of control at 10^−7 M was more than 60% or the value of IC50 was more than 200 nM.)"},
      {"molecule": "CCOc1ccc(NC(=O)N[C@H]2CC[C@@H](Nc3nc4c(c(N(C)C)n3)CCCC4)CC2)cc1", "note": "[compound 1888]", "class": "3 (Class 3 The value of percent of control at 10^−7 M was more than 60% or the value of IC50 was more than 200 nM.)"},
      {"molecule": "Cc1cc(NC(=O)N[C@H]2CC[C@@H](Nc3nc4c(c(N(C)C)n3)CCCC4)CC2)ccc1Br", "note": "[compound 1885]", "class": "3 (Class 3 The value of percent of control at 10^−7 M was more than 60% or the value of IC50 was more than 200 nM.)"},
      {"molecule": "COC(=O)c1scc(C)c1NC(=S)N[C@H]1CC[C@@H](Nc2nc3c(c(N(C)C)n2)CCCC3)CC1", "note": "[compound 1791]", "class": "3 (Class 3 The value of percent of control at 10^−7 M was more than 60% or the value of IC50 was more than 200 nM.)"},
      {"molecule": "CN(C)c1cc(N[C@H]2CC[C@@H](NC(=O)c3ccc(-c4ccc(Cl)cc4[N+](=O)[O-])o3)CC2)nc2ccccc12", "note": "[compound 676, 5-(4-chloro-2-nitrophenyl)-N-(cis-4-{[4-(dimethylamino)quinolin-2-yl]amino}cyclohexyl)-2-furamide]", "class": "2 (Class 2: The value of percent of control at 10^−7 M was from 40% to 60% or the value of IC′50 was from 50 nM to 200 nM.)"},
      {"molecule": "CN(C)c1nc(N[C@H]2CC[C@@H](CNCCc3ccc(C(C)(C)C)cc3)CC2)nc2c1CCCC2", "note": "[compound 1503]", "class": "3 (Class 3 The value of percent of control at 10^−7 M was more than 60% or the value of IC50 was more than 200 nM.)"},
      {"molecule": "CN(C)c1cc(N[C@H]2CC[C@@H](NC(=O)c3ccccc3Oc3ccccc3)CC2)nc2ccccc12", "note": "[compound 754, N-(cis-4-{[4-(dimethylamino)quinolin-2-yl]amino}cyclohexyl)-2-phenoxybenzamide]", "class": "2 (Class 2: The value of percent of control at 10^−7 M was from 40% to 60% or the value of IC′50 was from 50 nM to 200 nM.)"},
      {"molecule": "CN(C)c1cc(N[C@H]2CC[C@@H](NC(=O)c3ccccc3Sc3ccccc3C#N)CC2)nc2ccccc12", "note": "[compound 735]", "class": "3 (Class 3 The value of percent of control at 10^−7 M was more than 60% or the value of IC50 was more than 200 nM.)"},
      {"molecule": "CC(NC(=O)NC1CCC(Nc2cc(N(C)C)c3ccccc3n2)CC1)c1ccccc1", "note": "(centres unmarked) [compound 2137]", "class": "3 (Class 3 The value of percent of control at 10^−7 M was more than 60% or the value of IC50 was more than 200 nM.)"},
      {"molecule": "CN(C)c1ccnc(N[C@H]2CC[C@@H](NCCc3ccc(Br)cc3)CC2)n1", "note": "[compound 1513]", "class": "3 (Class 3 The value of percent of control at 10^−7 M was more than 60% or the value of IC50 was more than 200 nM.)"},
      {"molecule": "CN(C)c1ccnc(N[C@H]2CC[C@@H](NC(=O)Nc3c(Cl)cccc3C(F)(F)F)CC2)n1", "note": "[compound 2193]", "class": "3 (Class 3 The value of percent of control at 10^−7 M was more than 60% or the value of IC50 was more than 200 nM.)"},
      {"molecule": "CN(C)c1ccnc(N[C@H]2CC[C@@H](NC(=O)c3cc(Cl)cc(Cl)c3)CC2)n1", "note": "[compound 248]", "class": "1 (Class 1: The value of percent of control at 10^−7 M was less than 40% or the value of IC50 was less than 50 nM.)"},
      {"molecule": "CN(C)c1cc(N[C@H]2CC[C@@H](NCC3CN(C(c4ccccc4)c4ccccc4)C3)CC2)nc2ccccc12", "note": "[compound 1462]", "class": "1 (Class 1: The value of percent of control at 10^−7 M was less than 40% or the value of IC50 was less than 50 nM.)"},
      {"molecule": "COc1ccc(CN[C@H]2CC[C@@H](Nc3nccc(N(C)C)n3)CC2)c(OC)c1", "note": "[compound 1214]", "class": "3 (Class 3 The value of percent of control at 10^−7 M was more than 60% or the value of IC50 was more than 200 nM.)"},
      {"molecule": "Cc1c(C(=O)N[C@H]2CC[C@@H](Nc3nccc(N(C)C)n3)CC2)cc(-c2ccccc2)n1-c1ccccc1", "note": "[compound 890, N-(cis-4-{[4-(dimethylamino)pyrimidin-2-yl]amino}cyclohexyl)-2-methyl-1,5-diphenyl-1H-pyrrole-3-carboxamide]", "class": "1 (Class 1: The value of percent of control at 10^−7 M was less than 40% or the value of IC50 was less than 50 nM.)"}
    ]},
    {"test_system": "MCH receptors", "experiment": "MCH receptor activity class (method not given)", "conditions": "class by percent of control at 10^−7 M or IC50", "values": [
      {"molecule": "Cc1cc(N(C)C)nc(NC[C@H]2CC[C@@H](NC(=O)c3ccc(Br)cc3)CC2)n1", "note": "[compound 2744, 4-bromo-N-[cis-4-({[4-(dimethylamino)-6-methylpyrimidin-2-yl]amino}methyl)cyclohexyl]benzamide]", "class": "2 (Class 2: The value of percent of control at 10^−7 M was from 40% to 60% or the value of IC′50 was from 50 nM to 200 nM.)"},
      {"molecule": "Cc1cnc(N[C@H]2CC[C@@H](NC(=O)c3ccccc3Cl)CC2)nc1N(C)C", "note": "[compound 2915]", "class": "3 (Class 3 The value of percent of control at 10^−7 M was more than 60% or the value of IC50 was more than 200 nM.)"},
      {"molecule": "N-(3,4-dimethoxyphenyl)-N′-(cis-4-{[4-(dimethylamino)-5,6-dimethylpyrimidin-2-yl]amino}cyclohexyl)urea [compound 2867]", "class": "1 (Class 1: The value of percent of control at 10^−7 M was less than 40% or the value of IC50 was less than 50 nM.)"},
      {"molecule": "Cc1cnc(N[C@H]2CC[C@@H](C(=O)N3CCc4ccccc4C3)CC2)nc1N(C)C", "note": "[compound 2793]", "class": "3 (Class 3 The value of percent of control at 10^−7 M was more than 60% or the value of IC50 was more than 200 nM.)"},
      {"molecule": "Cc1cc(N(C)C)nc(NC[C@H]2CC[C@@H](NC(=O)c3ccc(C#N)cc3)CC2)n1", "note": "[compound 2743]", "class": "3 (Class 3 The value of percent of control at 10^−7 M was more than 60% or the value of IC50 was more than 200 nM.)"},
      {"molecule": "Cc1cnc(N[C@H]2CC[C@@H](CNC(=O)c3cccnc3Oc3ccccc3F)C2)nc1N(C)C", "note": "[compound 3015]", "class": "1 (Class 1: The value of percent of control at 10^−7 M was less than 40% or the value of IC50 was less than 50 nM.)"}
    ]}
  ]
}
